Structures can show the parent of a compound that is named as a salt.

In the test the target is T1, HMG-CoA reductase (Rattus norvegicus, UniProt P51639).
T1 construct: were preincubated with liver microsomes at 37° C. for 30 minutes; from tissue
T1 sequence (P51639 1-887): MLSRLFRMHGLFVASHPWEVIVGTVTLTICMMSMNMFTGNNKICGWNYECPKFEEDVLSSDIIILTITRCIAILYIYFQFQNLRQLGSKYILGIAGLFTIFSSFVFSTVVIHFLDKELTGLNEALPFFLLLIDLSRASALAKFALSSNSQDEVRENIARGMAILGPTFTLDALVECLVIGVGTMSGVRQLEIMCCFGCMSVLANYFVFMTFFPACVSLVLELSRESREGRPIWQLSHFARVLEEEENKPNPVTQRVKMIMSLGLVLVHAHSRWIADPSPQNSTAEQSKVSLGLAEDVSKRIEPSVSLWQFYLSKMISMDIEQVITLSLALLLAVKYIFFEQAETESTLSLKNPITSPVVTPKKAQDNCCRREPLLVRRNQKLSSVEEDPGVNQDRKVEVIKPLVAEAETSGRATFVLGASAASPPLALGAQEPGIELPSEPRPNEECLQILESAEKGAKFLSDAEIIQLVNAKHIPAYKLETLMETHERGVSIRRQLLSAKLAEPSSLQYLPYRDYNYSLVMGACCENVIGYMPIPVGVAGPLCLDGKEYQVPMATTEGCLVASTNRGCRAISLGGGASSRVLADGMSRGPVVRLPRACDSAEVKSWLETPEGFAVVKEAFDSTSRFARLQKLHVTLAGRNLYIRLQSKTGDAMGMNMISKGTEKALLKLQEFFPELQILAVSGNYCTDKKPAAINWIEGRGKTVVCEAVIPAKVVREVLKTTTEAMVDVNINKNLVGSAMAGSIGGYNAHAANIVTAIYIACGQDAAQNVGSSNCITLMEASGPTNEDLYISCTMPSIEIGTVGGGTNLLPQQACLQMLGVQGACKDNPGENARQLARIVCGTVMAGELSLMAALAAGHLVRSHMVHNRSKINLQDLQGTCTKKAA
The test is described as follows: in-vitro HMG-CoA reductase enzyme assay (liver microsomes, [14C] HMG-CoA). The format is biochemical. The settings on record: 2.5 μM [14C] HMG-CoA as substrate, 37° C. for 15 minutes; compounds preincubated with liver microsomes at 37° C. for 30 minutes. As to the method: HMG-CoA reductase is a rate-limiting enzyme in the cholesterol biosynthesis, catalyzing the following reaction.
[^14C] HMG-CoA+2NADPH+2H^+→[^14C] mevanolate+CoA+2NADP^+ microsomes,
HMG-CoA as a substrate. The reaction was carried out in the presence of 100 mM KH2PO4, 20 mM G-6-P, 2.5 mM NADPH, 10 mM EDTA, 5 mM DTT and […] G-6-P dehydrogenase, at 37° C. for 15 minutes and quantitating [^14C] mevalonate as an end product.
In general terms: Microsomes from liver hold many membrane-bound enzymes, among them those of drug oxidation.
`CC(C)c1c(C(=O)Nc2ccccc2)c(-c2ccccc2)c(-c2ccc(F)cc2F)n1CC[C@@H](O)C[C@@H](O)CC(=O)O` [Compound No. 12, (3R,5R)-7-[2-(2,4-Difluorophenyl)-5-isopropyl-3-phenyl-4-[(phenylamino)carbonyl]-pyrrol-1-yl]-3,5-dihydroxy-1-heptanoic acid calcium salt] showed an IC50 of 12.3 pM.

`CC(C)c1c(C(=O)Nc2ccccc2F)c(-c2ccccc2)c(-c2ccc(F)cc2)n1CC[C@@H](O)C[C@@H](O)CC(=O)O` [Compound No. 2, (3R,5R)-7-[2-(4-Fluorophenyl)-5-isopropyl-3-phenyl-4-[(2-fluorophenylamino)carbonyl]-pyrrol-1-yl]-3,5-dihydroxy-1-heptanoic acid calcium salt] came in with an IC50 of 17.7 pM.

“(3R,5R)-7-[2-(4-Fluorophenyl)-5-isopropyl-3-(2,4-difluorophenyl)-4-[(phenylamino)carbonyl]-1H-pyrrol-3,5-dihydroxy-1-heptanoic acid calcium salt [Compound No. 15]” displayed an IC50 of 12.2 pM.

“(3R,5R)-7-[2-(4-Fluorophenyl)-5-isopropyl-3-phenyl-4-[(3-fluorophen ylamino)carbonyl]-pyrrol-1-yl]-3,5-dihydroxy 1-heptanoic acid calcium salt [Compound No. 3]” registered an IC50 of 23.9 pM.

For the molecule `CC(C)c1c(C(=O)Nc2ccccc2)c(-c2ccccc2)c(-c2ccc(F)c(F)c2)n1CC[C@@H](O)C[C@@H](O)CC(=O)O` [Compound No. 13, (3R,5R)-7-[2-(3,4-Difluorophenyl)-5-isopropyl-3-phenyl-4-[(phenylamino)carbonyl]-pyrrol-1-yl]-3,5-dihydroxy-1-heptanoic acid calcium salt], the IC50 is 6.25 pM.

In turn, `CC(C)c1nc(N(C)S(C)(=O)=O)nc(-c2ccc(F)cc2)c1/C=C/[C@@H](O)C[C@@H](O)CC(=O)O` [Rosuvastatin, reference compound] registered an IC50 of 38.5 pM.

“(3R,5R)-7-[2,3-Di-(4-fluorophenyl)-5-isopropyl-4-[(phenylamino) carbonyl]-pyrrol-1-yl]-3,5-dihydroxy-1-heptanoic acid calcium salt [Compound No. 16]” returned an IC50 of 34.5 pM.

`CC(C)c1c(C(=O)Nc2ccccc2)c(-c2ccc(C(F)(F)F)cc2)c(-c2ccc(F)cc2)n1CC[C@@H](O)C[C@@H](O)CC(=O)O` [Compound No. 18, (3R,5R)-7-[2-(4-Fluorophenyl)-5-isopropyl-3-(4-trifluoromethylphenyl)-4-[(phenylamino)carbonyl]-pyrrol-1-yl]-3,5-dihydroxy-1-heptanoic acid calcium salt] yielded an IC50 of 12.6 pM.

The molecule `Cc1ccc(-c2c(C(=O)Nc3ccccc3)c(C(C)C)n(CC[C@@H](O)C[C@@H](O)CC(=O)O)c2-c2ccc(F)cc2)cc1` [Compound No. 17, (3R,5R)-7-[2-(4-Fluorophenyl)-5-isopropyl-3-(4-methylphenyl)-4-[(phenylamino)carbonyl]-pyrrol-1-yl]-3,5-dihydroxy-1-heptanoic acid calcium salt] came in with an IC50 of 34 pM.

In turn, “(3R,5R)-7-[2-(4-Fluorophenyl)-5-isopropyl-3-phenyl-4-[(4-fluorophenylamino)carbonyl]-pyrrol-1-yl]-3,5-dihydroxy-1-heptanoic acid calcium salt [Compound No. 4]” displayed an IC50 of 9.8 pM.

Molecule `O=C(O)C[C@H](O)C[C@H](O)CCn1c(-c2ccc(F)cc2)c(-c2ccccc2)c(C(=O)Nc2ccccc2)c1C1CC1` [Compound No. 19, (3R,5R)-7-[2-(4-Fluorophenyl)-5-cyclopropyl-3-phenyl-4-[(phenylamino)carbonyl]-pyrrol-1-yl]-3,5-dihydroxy-1-heptanoic acid calcium salt] returned an IC50 of 12.4 pM.

“(3R,5R)-7-[2-(4-Fluorophenyl)-5-isopropyl-3-phenyl-4-[(pyridin-2-yl-amino)carbonyl]pyrrol-1-yl]-3,5-dihydroxy-1-heptanoic acid calcium salt [Compound No. 5]” came in with an IC50 of 19.5 pM.

Usually IC50 stands for the concentration that gives 50% inhibition. The low end stands for higher potency, the high end for lower potency.

Source of the values: patent US20040102511A1, “Substituted pyrrole derivatives” (priority 2002, published 2004).
